Test results reported in ChEMBL document CHEMBL1132265, “Synthesis and evaluation of glucocerebrosidase inhibitory activity of anhydro deoxyinositols from (+)-epi- and (-)-vibo-quercitols” (Bioorg Med Chem Lett, 1999).
Blank lines part the entries; values can stand above or below the compound they belong to.

What was measured:
[1] = target: T1, Lysosomal acid glucosylceramidase (Mus musculus, UniProt P17439); test: Inhibitory activity against Glucosylceramidase in mouse liver; assay type: tissue-based
T1 sequence (P17439 whole entry): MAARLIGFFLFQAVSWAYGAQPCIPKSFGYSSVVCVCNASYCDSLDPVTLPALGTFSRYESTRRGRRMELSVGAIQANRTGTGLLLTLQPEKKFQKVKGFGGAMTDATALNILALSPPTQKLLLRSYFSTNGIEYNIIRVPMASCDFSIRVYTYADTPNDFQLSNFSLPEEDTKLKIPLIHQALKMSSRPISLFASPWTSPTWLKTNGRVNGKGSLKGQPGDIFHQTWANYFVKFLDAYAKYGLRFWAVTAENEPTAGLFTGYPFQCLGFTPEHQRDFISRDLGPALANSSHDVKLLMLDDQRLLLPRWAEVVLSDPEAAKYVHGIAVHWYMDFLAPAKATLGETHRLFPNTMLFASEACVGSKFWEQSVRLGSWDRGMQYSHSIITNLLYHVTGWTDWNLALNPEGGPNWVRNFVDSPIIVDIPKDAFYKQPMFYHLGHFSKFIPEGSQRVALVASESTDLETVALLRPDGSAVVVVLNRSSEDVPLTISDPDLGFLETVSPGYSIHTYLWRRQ

[2] = target: T1, Lysosomal acid glucosylceramidase; test: Inhibitory activity against Glucosylceramidase in mouse liver at a concentration of 10e-4 M; NA is inactive; assay type: tissue-based
[3] = target: T1, Lysosomal acid glucosylceramidase; test: Inhibitory activity against Glucosylceramidase in mouse liver; Significant activity
Galactocerebrosidase = target: T2, Galactocerebrosidase (Mus musculus, UniProt P54818); test: Inhibitory activity against Galactocerebrosidase; NA is not active
T2 sequence (P54818 whole entry): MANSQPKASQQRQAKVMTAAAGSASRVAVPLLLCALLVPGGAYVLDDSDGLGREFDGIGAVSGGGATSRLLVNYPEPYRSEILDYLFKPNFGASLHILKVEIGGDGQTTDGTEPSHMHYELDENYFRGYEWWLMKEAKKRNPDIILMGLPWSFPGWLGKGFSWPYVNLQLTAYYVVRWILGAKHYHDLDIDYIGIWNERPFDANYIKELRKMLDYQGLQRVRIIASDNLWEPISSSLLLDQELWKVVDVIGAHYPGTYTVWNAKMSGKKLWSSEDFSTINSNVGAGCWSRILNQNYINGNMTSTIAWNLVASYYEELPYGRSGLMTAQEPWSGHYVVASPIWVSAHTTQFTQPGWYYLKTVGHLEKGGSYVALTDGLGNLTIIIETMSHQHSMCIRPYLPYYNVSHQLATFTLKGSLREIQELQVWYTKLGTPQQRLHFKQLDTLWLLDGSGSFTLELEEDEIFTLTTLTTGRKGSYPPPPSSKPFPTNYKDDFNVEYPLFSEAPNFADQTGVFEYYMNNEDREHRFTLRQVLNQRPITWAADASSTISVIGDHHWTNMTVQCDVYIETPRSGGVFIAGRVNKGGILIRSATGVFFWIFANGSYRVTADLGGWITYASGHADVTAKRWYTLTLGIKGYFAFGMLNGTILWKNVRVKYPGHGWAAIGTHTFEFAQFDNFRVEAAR

[4] = target: T1, Lysosomal acid glucosylceramidase; test: Inhibitory activity against Glucosylceramidase in mouse liver relative to compound 5; Active; assay type: tissue-based
[5] = target: T1, Lysosomal acid glucosylceramidase; test: Specific inhibitory activity against Glucosylceramidase in mouse liver; assay type: tissue-based
[6] = target: T1, Lysosomal acid glucosylceramidase; test: Specific inhibitory activity against Glucosylceramidase in mouse liver; Significant activity

Structure (SMILES): O[C@H]1[C@H](O)[C@H](O)C[C@@H]2O[C@H]12
IC50 [2]: Not Active

Structure (SMILES): O[C@H]1[C@@H]2O[C@@H]2[C@@H](O)C[C@H]1O
IC50 [2]: Not Active

Structure (SMILES): O[C@@H]1[C@@H](O)[C@H](O)C[C@H](O)[C@@H]1O
IC50 [3]: Significant activity

Structure (SMILES): O[C@@H]1[C@@H](O)[C@H](O)C[C@H]2O[C@@H]12
IC50 (Galactocerebrosidase): Not Active
IC50 [1]: 0.96 µM

Structure (SMILES): O[C@@H]1[C@H](O)[C@H]2O[C@H]2C[C@H]1O
IC50 [2]: Not Active

Structure (SMILES): O[C@@H]1[C@H]2O[C@H]2[C@@H](O)C[C@H]1O
IC50 [2]: Not Active

Structure (SMILES): O[C@@H]1[C@@H](O)[C@H](O)C[C@@H](O)[C@H]1O
IC50 [3]: Significant activity

Structure (SMILES): O[C@H]1[C@H]2O[C@H]2[C@H](O)C[C@H]1O
IC50 [2]: Not Active

Structure (SMILES): O[C@H]1[C@@H]2O[C@@H]2[C@H](O)C[C@@H]1O
IC50 [4]: Active

More lines, now with the values ahead:

IC50 [1]: 98 µM
Structure (SMILES): O[C@@H]1[C@H]2O[C@H]2[C@H](O)C[C@H]1O

IC50 [2]: Not Active
Structure (SMILES): O[C@@H]1[C@H](O)[C@H](O)C[C@H]2O[C@@H]12

IC50 [2]: Not Active
Structure (SMILES): O[C@@H]1[C@H](O)[C@H]2O[C@H]2C[C@@H]1O

IC50 [2]: Not Active
Structure (SMILES): O[C@@H]1[C@H]2O[C@H]2[C@H](O)C[C@@H]1O

IC50 [4]: Active
Structure (SMILES): O[C@@H]1[C@@H](O)[C@H](O)C[C@@H]2O[C@H]12

IC50 [5]: 8.9 µM
Structure (SMILES): O[C@H]1[C@H](O)[C@@H](O)[C@@H]2O[C@@H]2[C@@H]1O [CONDURITOL B EPOXIDE]

IC50 [6]: Significant activity
Structure (SMILES): OC[C@@H]1[C@@H](O)[C@H](O)[C@@H](O)[C@@H]2O[C@H]12 [CYCLOPHELLITOL]
